# Assay results reported in ChEMBL document CHEMBL4673219, “Novel 5,6-disubstituted pyrrolo[2,3-d]pyrimidine derivatives as broad spectrum antiproliferative agents: Synthesis, cell based assays, kinase profile and molecular docking study” (Bioorg Med Chem, 2018).
# What was measured:
# Format in all cases: functional
# Malme-3M = experiment: Growth inhibition of human Malme-3M cells assessed as growth percentage at 1 uM incubated for 48 hrs by sulforhodamine B assay relative to control; details: read-out: Activity
# DU-145 [1] = experiment: Growth inhibition of human DU-145 cells assessed as growth percentage at 0.01 uM incubated for 48 hrs by sulforhodamine B assay relative to control; details: read-out: Activity
# SR = experiment: Growth inhibition of human SR cells assessed as growth percentage at 10 uM incubated for 48 hrs by sulforhodamine B assay relative to control; details: read-out: Activity
# SF-268 = experiment: Growth inhibition of human SF-268 cells assessed as growth percentage at 1 uM incubated for 48 hrs by sulforhodamine B assay relative to control; details: read-out: Activity
# SNB-19 [2] = experiment: Growth inhibition of human SNB-19 cells assessed as growth percentage at 1 uM incubated for 48 hrs by sulforhodamine B assay relative to control; details: read-out: Activity
# HOP-62 = experiment: Growth inhibition of human HOP-62 cells assessed as growth percentage at 1 uM incubated for 48 hrs by sulforhodamine B assay relative to control; details: read-out: Activity
# Hs-578T [3] = experiment: Growth inhibition of human Hs-578T cells assessed as growth percentage at 10 uM incubated for 48 hrs by sulforhodamine B assay relative to control; details: read-out: Activity
# LOX IMVI = experiment: Growth inhibition of human LOX IMVI cells assessed as growth percentage at 10 uM incubated for 48 hrs by sulforhodamine B assay relative to control; details: read-out: Activity
# BT-549 [4] = experiment: Growth inhibition of human BT-549 cells incubated for 48 hrs by sulforhodamine B assay
# BT-549 [5] = experiment: Growth inhibition of human BT-549 cells assessed as growth percentage at 10 uM incubated for 48 hrs by sulforhodamine B assay relative to control; details: read-out: Activity
# NCI-H23 [6] = experiment: Growth inhibition of human NCI-H23 cells assessed as growth percentage at 10 uM incubated for 48 hrs by sulforhodamine B assay relative to control; details: read-out: Activity
# SF-539 = experiment: Growth inhibition of human SF-539 cells assessed as growth percentage at 10 uM incubated for 48 hrs by sulforhodamine B assay relative to control; details: read-out: Activity
# SK-MEL-5 = experiment: Growth inhibition of human SK-MEL-5 cells assessed as growth percentage at 0.1 uM incubated for 48 hrs by sulforhodamine B assay relative to control; details: read-out: Activity
# SF-295 = experiment: Growth inhibition of human SF-295 cells incubated for 48 hrs by sulforhodamine B assay
# SN12C [7] = experiment: Growth inhibition of human SN12C cells assessed as growth percentage at 1 uM incubated for 48 hrs by sulforhodamine B assay relative to control; details: read-out: Activity
# SK-OV-3 [8] = experiment: Growth inhibition of human SK-OV-3 cells assessed as growth percentage at 0.1 uM incubated for 48 hrs by sulforhodamine B assay relative to control; details: read-out: Activity
# Hs-578T [9] = experiment: Growth inhibition of human Hs-578T cells assessed as growth percentage at 0.1 uM incubated for 48 hrs by sulforhodamine B assay relative to control; details: read-out: Activity
# NCI-H322M = experiment: Growth inhibition of human NCI-H322M cells assessed as growth percentage at 100 uM incubated for 48 hrs by sulforhodamine B assay relative to control; details: read-out: Activity
# A498 = experiment: Growth inhibition of human A498 cells assessed as growth percentage at 0.01 uM incubated for 48 hrs by sulforhodamine B assay relative to control; details: read-out: Activity
# A549 [10] = experiment: Growth inhibition of human A549/ATCC cells assessed as growth percentage at 1 uM incubated for 48 hrs by sulforhodamine B assay relative to control; details: read-out: Activity
# HT-29 = experiment: Growth inhibition of human HT-29 cells assessed as growth percentage at 10 uM incubated for 48 hrs by sulforhodamine B assay relative to control; details: read-out: Activity
# UACC-257 = experiment: Growth inhibition of human UACC-257 cells incubated for 48 hrs by sulforhodamine B assay
# A549 [11] = experiment: Growth inhibition of human A549/ATCC cells assessed as growth percentage at 0.1 uM incubated for 48 hrs by sulforhodamine B assay relative to control; details: read-out: Activity
# SK-OV-3 [12] = experiment: Growth inhibition of human SK-OV-3 cells incubated for 48 hrs by sulforhodamine B assay; details: Homo sapiens
# NCI-H522 = experiment: Growth inhibition of human NCI-H522 cells incubated for 48 hrs by sulforhodamine B assay
# OVCAR-5 = experiment: Growth inhibition of human OVCAR-5 cells incubated for 48 hrs by sulforhodamine B assay
# NCI-H460 = experiment: Growth inhibition of human NCI-H460 cells assessed as growth percentage at 0.1 uM incubated for 48 hrs by sulforhodamine B assay relative to control; details: read-out: Activity
# SN12C [13] = experiment: Growth inhibition of human SN12C cells assessed as growth percentage at 0.01 uM incubated for 48 hrs by sulforhodamine B assay relative to control; details: read-out: Activity
# OVCAR-3 = experiment: Growth inhibition of human OVCAR-3 cells assessed as growth percentage at 0.1 uM incubated for 48 hrs by sulforhodamine B assay relative to control; details: read-out: Activity
# DU-145 [14] = experiment: Growth inhibition of human DU-145 cells assessed as growth percentage at 10 uM incubated for 48 hrs by sulforhodamine B assay relative to control; details: read-out: Activity
# NCI-H23 [15] = experiment: Growth inhibition of human NCI-H23 cells incubated for 48 hrs by sulforhodamine B assay
# SNB-19 [16] = experiment: Growth inhibition of human SNB-19 cells assessed as growth percentage at 0.01 uM incubated for 48 hrs by sulforhodamine B assay relative to control; details: read-out: Activity
# KM12 = experiment: Growth inhibition of human KM12 cells incubated for 48 hrs by sulforhodamine B assay
# COLO 205 = experiment: Growth inhibition of human COLO 205 cells assessed as growth percentage at 1 uM incubated for 48 hrs by sulforhodamine B assay relative to control; details: read-out: Activity
# MDA-MB-231 = experiment: Growth inhibition of human MDA-MB-231/ATCC cells assessed as growth percentage at 10 uM incubated for 48 hrs by sulforhodamine B assay relative to control; details: read-out: Activity
# T47D = experiment: Growth inhibition of human T47D cells assessed as growth percentage at 0.01 uM incubated for 48 hrs by sulforhodamine B assay relative to control; details: read-out: Activity
# HCT-15 = experiment: Growth inhibition of human HCT-15 cells incubated for 48 hrs by sulforhodamine B assay
# MDA-MB-435 = experiment: Growth inhibition of human MDA-MB-435 cells assessed as growth percentage at 0.01 uM incubated for 48 hrs by sulforhodamine B assay relative to control; details: read-out: Activity
# TK-10 = experiment: Growth inhibition of human TK-10 cells assessed as growth percentage at 1 uM incubated for 48 hrs by sulforhodamine B assay relative to control; details: read-out: Activity
smiles,measurement,setting,value
CCCCCCCC(=O)Nc1nc2[nH]c(CN3CCN(Cc4cccc(F)c4)CC3)c(CN3CCN(Cc4cccc(F)c4)CC3)c2c(=O)[nH]1,growth at 1 µM,Malme-3M,40%
same,growth at 0.01 µM,DU-145 [1],100%
same,growth at 10 µM,SR,-52.8%
same,growth at 1 µM,SF-268,65%
same,growth at 1 µM,SNB-19 [2],82%
same,growth at 1 µM,HOP-62,75%
same,growth at 10 µM,Hs-578T [3],-49.4%
same,growth at 10 µM,LOX IMVI,-88.5%
same,GI50,BT-549 [4],1530 nM
same,TGI,BT-549 [4],2920 nM
same,CC50,BT-549 [4]; read-out: LC50 (the source's name),5.58 µM
same,growth at 10 µM,BT-549 [5],29%
same,growth at 10 µM,NCI-H23 [6],-53.8%
same,growth at 10 µM,SF-539,-96.9%
same,growth at 0.1 µM,SK-MEL-5,101%
same,GI50,SF-295,1410 nM
same,LC50,SF-295,5.79 µM
same,TGI,SF-295,2850 nM
same,growth at 1 µM,SN12C [7],76%
same,growth at 0.1 µM,SK-OV-3 [8],94%
same,growth at 0.1 µM,Hs-578T [9],96%
same,growth at 100 µM,NCI-H322M,-82%
same,growth at 0.01 µM,A498,66%
same,growth at 1 µM,A549 [10],8%
same,growth at 10 µM,HT-29,-69.7%
same,GI50,UACC-257; 48 h,200 nM
same,TGI,UACC-257; 48 h,460 nM
same,GI50,"UACC-257; Homo sapiens, UACC-257, 48 h",203 nM
same,LC50 (concentration killing 50% of cells),"UACC-257; Homo sapiens, UACC-257, 48 h",1090 nM
same,TGI,"UACC-257; Homo sapiens, UACC-257, 48 h",456 nM
same,growth at 0.1 µM,A549 [11],98%
same,GI50,SK-OV-3 [12]; SK-OV-3,1900 nM
same,LC50,"SK-OV-3 [12]; SK-OV-3, 48 h",5.86 µM
same,TGI,"SK-OV-3 [12]; SK-OV-3, 48 h",3.33 µM
same,GI50,NCI-H522,1910 nM
same,LC50,NCI-H522,6.88 µM
same,TGI,NCI-H522,3.62 µM
same,GI50,OVCAR-5,2640 nM
same,TGI,OVCAR-5,9.27 µM
same,growth at 0.1 µM,NCI-H460,105%
same,growth at 0.01 µM,SN12C [13],97%
same,growth at 0.1 µM,OVCAR-3,102%
same,growth at 10 µM,DU-145 [14],-74.7%
same,GI50,NCI-H23 [15],1860 nM
same,LC50 (50% lethal concentration),NCI-H23 [15],8.02 µM
same,TGI,NCI-H23 [15],3.86 µM
same,growth at 0.01 µM,SNB-19 [16],96%
same,GI50,KM12; 48 h,720 nM
same,TGI,"KM12; Homo sapiens, KM12",2380 nM
same,GI50,"KM12; Homo sapiens, KM12, 48 h",719 nM
same,growth at 1 µM,COLO 205,74%
same,growth at 10 µM,MDA-MB-231,-83%
same,growth at 0.01 µM,T47D,95%
same,GI50,HCT-15; 48 h,300 nM
same,TGI,"HCT-15; Homo sapiens, HCT-15",1010 nM
same,GI50,"HCT-15; Homo sapiens, HCT-15, 48 h",295 nM
same,CC50,"HCT-15; Homo sapiens, HCT-15, read-out: LC50 (the source's name)",3.75 µM
same,growth at 0.01 µM,MDA-MB-435,99%
same,growth at 1 µM,TK-10,94%
